Laboratory results from PMC6309937 (Pain, 2019).

What was measured:
Format in all cases: cell-based
hCav3.2 = hCav3.2 (Homo sapiens, UniProt O95180); test: whole-cell patch clamp, % inhibition of current; conditions: read-out: 20μM
rCav2.2 = rCav2.2 (Rattus norvegicus, UniProt Q02294); test: whole-cell patch clamp, % inhibition of current at […]; conditions: read-out: % inhibition at 20 μM
hCav3.3 = hCav3.3 (Homo sapiens, UniProt Q9P0X4); test: whole-cell patch clamp, % inhibition of current; conditions: read-out: 20μM
Sequence of hCav3.3 (Q9P0X4 whole entry): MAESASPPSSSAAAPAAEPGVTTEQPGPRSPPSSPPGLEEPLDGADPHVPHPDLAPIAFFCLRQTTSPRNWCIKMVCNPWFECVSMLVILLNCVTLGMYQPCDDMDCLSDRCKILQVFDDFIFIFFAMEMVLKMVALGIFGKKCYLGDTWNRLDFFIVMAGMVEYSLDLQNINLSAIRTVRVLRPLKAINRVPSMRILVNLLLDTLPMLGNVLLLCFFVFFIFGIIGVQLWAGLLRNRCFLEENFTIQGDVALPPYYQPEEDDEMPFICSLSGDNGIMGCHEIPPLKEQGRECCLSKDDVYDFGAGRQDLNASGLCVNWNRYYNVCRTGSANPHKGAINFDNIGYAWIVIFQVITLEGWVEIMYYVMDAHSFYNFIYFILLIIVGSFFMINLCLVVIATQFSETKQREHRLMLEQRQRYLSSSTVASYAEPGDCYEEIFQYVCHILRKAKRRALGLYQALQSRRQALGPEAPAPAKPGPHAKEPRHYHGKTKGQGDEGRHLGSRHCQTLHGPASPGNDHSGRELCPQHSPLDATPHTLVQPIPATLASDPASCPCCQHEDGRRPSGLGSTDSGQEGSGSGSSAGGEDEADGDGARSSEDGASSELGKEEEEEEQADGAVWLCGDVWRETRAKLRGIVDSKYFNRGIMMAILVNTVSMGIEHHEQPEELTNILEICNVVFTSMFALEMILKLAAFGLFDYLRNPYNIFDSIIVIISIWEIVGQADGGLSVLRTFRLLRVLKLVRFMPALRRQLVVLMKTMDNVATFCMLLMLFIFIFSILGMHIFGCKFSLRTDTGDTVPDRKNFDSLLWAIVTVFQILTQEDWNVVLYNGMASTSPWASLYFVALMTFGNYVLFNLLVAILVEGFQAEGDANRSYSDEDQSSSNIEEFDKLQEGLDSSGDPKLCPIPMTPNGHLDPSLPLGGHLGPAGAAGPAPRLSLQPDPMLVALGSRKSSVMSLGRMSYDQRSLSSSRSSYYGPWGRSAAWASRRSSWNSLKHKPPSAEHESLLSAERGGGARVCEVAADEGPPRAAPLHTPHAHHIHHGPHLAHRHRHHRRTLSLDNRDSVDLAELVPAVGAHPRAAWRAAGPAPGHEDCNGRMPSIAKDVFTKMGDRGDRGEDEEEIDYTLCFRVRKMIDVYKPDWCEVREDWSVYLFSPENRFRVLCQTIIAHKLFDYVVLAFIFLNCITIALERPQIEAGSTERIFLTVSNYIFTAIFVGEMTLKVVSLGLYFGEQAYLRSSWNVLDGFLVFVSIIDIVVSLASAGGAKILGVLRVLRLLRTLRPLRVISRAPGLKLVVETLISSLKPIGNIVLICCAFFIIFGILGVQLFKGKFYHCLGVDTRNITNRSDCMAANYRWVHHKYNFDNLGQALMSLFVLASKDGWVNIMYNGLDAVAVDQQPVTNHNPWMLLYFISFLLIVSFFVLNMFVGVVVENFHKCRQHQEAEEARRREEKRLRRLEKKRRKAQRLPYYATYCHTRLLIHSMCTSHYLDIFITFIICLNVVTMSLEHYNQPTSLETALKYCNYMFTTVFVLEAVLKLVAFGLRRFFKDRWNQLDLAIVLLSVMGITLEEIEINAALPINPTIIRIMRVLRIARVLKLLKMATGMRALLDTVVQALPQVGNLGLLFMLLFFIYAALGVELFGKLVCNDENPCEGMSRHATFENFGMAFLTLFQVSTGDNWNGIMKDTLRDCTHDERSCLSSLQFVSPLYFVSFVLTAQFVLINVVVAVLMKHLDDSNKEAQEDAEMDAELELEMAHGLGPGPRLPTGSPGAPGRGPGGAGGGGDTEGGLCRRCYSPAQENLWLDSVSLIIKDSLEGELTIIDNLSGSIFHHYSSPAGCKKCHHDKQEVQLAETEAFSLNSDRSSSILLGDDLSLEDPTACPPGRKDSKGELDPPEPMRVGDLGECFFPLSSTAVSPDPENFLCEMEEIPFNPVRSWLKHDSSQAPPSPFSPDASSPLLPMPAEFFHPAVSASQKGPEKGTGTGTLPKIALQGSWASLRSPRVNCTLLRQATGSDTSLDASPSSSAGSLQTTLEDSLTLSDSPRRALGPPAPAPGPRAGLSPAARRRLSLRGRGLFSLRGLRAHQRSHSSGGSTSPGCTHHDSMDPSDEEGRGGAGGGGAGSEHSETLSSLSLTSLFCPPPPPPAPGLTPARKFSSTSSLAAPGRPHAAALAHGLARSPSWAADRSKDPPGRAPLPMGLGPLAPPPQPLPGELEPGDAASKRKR

Sequence of rCav2.2 (Q02294 whole entry): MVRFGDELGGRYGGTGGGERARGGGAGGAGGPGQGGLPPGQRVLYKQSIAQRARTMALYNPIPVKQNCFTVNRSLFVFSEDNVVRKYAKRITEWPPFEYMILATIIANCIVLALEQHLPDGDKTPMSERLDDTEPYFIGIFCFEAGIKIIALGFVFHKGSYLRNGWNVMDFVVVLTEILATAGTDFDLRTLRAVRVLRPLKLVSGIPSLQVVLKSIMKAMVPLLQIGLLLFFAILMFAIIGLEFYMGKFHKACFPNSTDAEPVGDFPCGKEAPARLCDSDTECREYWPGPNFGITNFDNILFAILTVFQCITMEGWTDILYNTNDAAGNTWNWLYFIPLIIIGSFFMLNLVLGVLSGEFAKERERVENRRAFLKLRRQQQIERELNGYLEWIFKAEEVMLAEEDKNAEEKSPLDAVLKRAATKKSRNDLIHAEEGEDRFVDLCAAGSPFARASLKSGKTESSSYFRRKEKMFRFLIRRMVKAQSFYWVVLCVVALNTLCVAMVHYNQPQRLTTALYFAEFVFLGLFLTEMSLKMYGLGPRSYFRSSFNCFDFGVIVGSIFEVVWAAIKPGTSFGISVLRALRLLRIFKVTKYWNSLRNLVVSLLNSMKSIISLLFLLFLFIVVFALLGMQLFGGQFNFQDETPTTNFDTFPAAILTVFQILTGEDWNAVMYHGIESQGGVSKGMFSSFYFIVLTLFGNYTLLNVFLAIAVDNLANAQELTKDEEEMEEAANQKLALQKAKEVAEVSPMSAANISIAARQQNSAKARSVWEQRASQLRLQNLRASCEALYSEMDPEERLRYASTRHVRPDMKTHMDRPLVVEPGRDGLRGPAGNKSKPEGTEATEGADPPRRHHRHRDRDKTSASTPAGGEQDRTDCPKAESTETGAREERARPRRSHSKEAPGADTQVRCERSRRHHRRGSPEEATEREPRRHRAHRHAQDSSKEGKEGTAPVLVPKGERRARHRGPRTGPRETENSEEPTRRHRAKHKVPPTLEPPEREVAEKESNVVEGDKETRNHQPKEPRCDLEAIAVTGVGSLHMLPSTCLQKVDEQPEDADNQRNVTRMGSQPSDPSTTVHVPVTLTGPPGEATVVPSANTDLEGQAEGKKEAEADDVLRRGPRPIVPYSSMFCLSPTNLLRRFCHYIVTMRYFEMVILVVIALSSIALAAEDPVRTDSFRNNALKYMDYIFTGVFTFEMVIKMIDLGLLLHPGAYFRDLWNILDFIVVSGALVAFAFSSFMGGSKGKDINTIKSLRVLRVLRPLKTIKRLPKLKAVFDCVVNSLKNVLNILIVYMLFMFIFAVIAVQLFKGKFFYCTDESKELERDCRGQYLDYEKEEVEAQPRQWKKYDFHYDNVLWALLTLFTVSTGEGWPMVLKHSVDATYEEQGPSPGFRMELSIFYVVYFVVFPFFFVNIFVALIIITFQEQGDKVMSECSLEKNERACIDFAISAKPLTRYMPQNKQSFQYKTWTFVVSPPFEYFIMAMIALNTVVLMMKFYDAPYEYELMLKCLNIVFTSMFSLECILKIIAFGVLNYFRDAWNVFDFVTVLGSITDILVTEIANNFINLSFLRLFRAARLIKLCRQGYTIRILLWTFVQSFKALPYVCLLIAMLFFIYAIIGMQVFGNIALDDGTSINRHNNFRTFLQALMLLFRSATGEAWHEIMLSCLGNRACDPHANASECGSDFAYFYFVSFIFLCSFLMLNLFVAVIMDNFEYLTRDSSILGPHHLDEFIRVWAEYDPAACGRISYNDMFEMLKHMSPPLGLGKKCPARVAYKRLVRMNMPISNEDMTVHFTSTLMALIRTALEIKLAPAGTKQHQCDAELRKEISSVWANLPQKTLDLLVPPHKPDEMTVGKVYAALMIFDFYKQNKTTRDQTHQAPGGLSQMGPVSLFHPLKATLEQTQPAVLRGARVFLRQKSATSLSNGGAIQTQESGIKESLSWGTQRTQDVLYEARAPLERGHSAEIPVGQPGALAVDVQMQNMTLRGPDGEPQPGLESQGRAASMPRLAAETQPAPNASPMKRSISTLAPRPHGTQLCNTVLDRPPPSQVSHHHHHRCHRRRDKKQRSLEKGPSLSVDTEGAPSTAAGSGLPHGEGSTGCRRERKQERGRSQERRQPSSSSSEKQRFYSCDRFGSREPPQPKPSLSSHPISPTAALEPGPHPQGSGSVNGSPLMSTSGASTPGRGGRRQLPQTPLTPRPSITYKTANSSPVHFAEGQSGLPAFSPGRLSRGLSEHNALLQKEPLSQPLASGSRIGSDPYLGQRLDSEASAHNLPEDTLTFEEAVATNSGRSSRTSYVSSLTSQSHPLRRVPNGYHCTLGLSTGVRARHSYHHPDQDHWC

Question: Which results are given for `C=C(C)[C@@H]1CC[C@]2(C(=O)O)CC[C@]3(C)[C@H](CC[C@@H]4[C@@]5(C)CC[C@H](O)C(C)(C)[C@@H]5CC[C@]43C)[C@@H]12` [BA, betulinic acid]?
Answer: inhibition at 20 µM (hCav3.2): 66.1 ± 4.6%; inhibition at 20 µM (rCav2.2): 69.8 ± 2.5%; inhibition at 20 µM (hCav3.3): 31.4 ± 1.8%
